Consider 18 compounds from patent publication US8399676B2, “Piperidine derivatives” (Hoffman-La Roche Inc., priority 2009, dated 2013).

Counter-ions that a name gives are not always drawn.

The target of the test is T1, human HSL (Homo sapiens, UniProt Q05469).
T1 construct: generate a full length human HSL ORF with a 3′-His6 tag; His6 (C); made in house; host or cells: High 5 insect cells (baculovirus, pFast-BAC)
T1 sequence (Q05469 1-1076): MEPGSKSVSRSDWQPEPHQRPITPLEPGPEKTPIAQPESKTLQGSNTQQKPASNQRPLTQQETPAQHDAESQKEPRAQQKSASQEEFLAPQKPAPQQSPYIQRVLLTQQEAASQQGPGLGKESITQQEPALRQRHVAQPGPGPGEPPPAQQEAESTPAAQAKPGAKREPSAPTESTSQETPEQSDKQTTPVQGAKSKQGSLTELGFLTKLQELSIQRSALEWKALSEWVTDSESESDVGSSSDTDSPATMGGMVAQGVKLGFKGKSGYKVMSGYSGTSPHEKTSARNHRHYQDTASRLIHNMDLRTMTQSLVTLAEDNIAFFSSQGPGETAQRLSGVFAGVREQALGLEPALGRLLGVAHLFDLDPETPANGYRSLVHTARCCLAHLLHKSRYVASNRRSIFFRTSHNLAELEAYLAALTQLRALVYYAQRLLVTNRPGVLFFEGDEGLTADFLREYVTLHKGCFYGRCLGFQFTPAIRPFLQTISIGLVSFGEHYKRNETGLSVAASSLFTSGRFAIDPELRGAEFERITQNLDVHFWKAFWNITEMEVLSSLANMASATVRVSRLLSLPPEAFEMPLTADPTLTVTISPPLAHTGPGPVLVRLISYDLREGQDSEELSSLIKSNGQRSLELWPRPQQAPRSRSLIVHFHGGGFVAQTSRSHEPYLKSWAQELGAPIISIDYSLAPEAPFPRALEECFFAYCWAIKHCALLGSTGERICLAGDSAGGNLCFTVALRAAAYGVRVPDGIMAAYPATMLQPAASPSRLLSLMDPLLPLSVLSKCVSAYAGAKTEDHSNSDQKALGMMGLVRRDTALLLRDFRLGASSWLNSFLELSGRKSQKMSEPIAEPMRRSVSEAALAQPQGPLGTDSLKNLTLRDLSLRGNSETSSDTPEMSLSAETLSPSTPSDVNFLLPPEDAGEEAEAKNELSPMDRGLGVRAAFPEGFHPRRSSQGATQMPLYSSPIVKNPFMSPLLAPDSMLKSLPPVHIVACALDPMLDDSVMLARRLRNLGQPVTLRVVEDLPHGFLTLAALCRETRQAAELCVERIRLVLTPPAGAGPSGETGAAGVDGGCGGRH
As to the kind of experiment: Human Hormone-Sensitive Lipase (HSL) enzyme inhibition assay (colorimetric, DMPT substrate). It counts as biochemical. Conditions: read-out: HSL hum IC50. As for the experimental part: Production of Human Full Length Hormone Sensitive Lipase-His^6
1) Cloning: cDNA was prepared from commercial human brain polyA+ RNA and used as a template in overlapping PCR to generate a full length human HSL ORF with a 3′-His6 tag. This full length insert was cloned into the pFast-BAC vector and the DNA-sequence of several single clones was verified. DNA from a correct full length clone with the 3′His6 tag was used to transform the E. coli strain DH10BAC. Resulting bacmid DNA was used to generate a titered baculovirus stock for protein generation. The sequence of the encoded HSL conforms to Swissprot entry Q05469, with the additional C-terminal His6-tag.
2) Protein purification: Culture: 5.5 L, High 5 cells expressing human full length HSL-His^6, 48 hr., containing 25 μM E-64. Cell count: […], 90% viable.
Cells were thawed. On ice, cells were suspended in Base Buffer containing 10% glycerol, 25 mM Tris-Cl, 300 mM NaCl, 10 mM imidazole, 10 mM 2-mercaptoethanol, 2 μg pepstatin/ml, 2 μg leupeptin/ml, 2 μg antipain/ml, pH 8.0 at 4° C. in a final volume of 475 ml with 3.75×10^7 cells/ml. […] was done at 3×30 sec., Lubrol PX was added to 0.2% final concentration followed by stirring for 15 min. at 4° C. and centrifugation at 25 k×g, 60 min., 4° C. Soluble proteins were mixed with 60 ml of pre-washed and equilibrated Ni-NTA Agarose (Qiagen 30210) followed by tumbling end-over-end, 45 min., 4° C., centrifugation 1000 rpm 5 min and letting resin settle 5 min. Supernatant was removed, the resin washed in the centrifuge vessel using 5 volumes of Base Buffer containing 0.2% Lubrol PX. Centrifugation was done again, then the supernatant discarded. The resin was poured onto a 0.8 μm membrane in a disposable filter unit (Nalge 450-0080), and washed with 5 volumes of Base Buffer containing 0.2% Lubrol PX. It was then washed with 30 volumes of Base Buffer containing 60 mM imidazole pH 7.5 at 4° C. The protein was eluted with 5 volumes of 25 mM Tris-Cl, 300 mM NaCl, 200 mM imidazole, 10 mM 2-mercaptoethanol, pH 7.5 at 4° C. by tumbling resin with buffer end-over-end, 30 min., 4° C. The resin was captured on a 0.2 μm membrane disposable filter unit (Millipore SCGP U02 RE) and the elute collected in the reservoir. The elute was concentrated using a 30 k MWCO centrifugal filter device (Sartorius Vivascience Vivacell 100, VC1022), to 20 ml. It was then dialyzed overnight at 4° C., two times against 2 L of 10% glycerol, 25 mM Tris-Cl, 300 mM NaCl, 0.2 mM EDTA, 0.2 mM DTT, pH 7.5 at 4° C. The protein was filtered using a 0.22 μm disposable filter unit (Millipore SCGP00525). The protein concentration was calculated from absorbance at 280 nm, using 280=0.67 cm-1 mg-1. Yield was 235 mg, total. The protein was stored at −80° C. Human Hormone-Sensitive Lipase (HSL) enzyme inhibition assay:
HSL enzyme activity was measured by a colorimetric assay using 2,3-dimercapto-1-propanol tributyrate (Aldrich, St. Louis, Mo.) as a substrate. Typically, 1.5 mM 2,3-dimercapto-1-propanol tributyrate (DMPT) in 100 mM MOPS, pH 7.2, 0.2 mg/ml fatty acid-free BSA was prepared by sonication at 4° C. to homogenous suspension. Test compounds (2 mM stock in DMSO) were diluted 3 fold in series in DMSO. Compound solutions were diluted 24 fold in 1.5 mM DMPT containing solution and 18 ul per well was added to 384-well microplates (Corning Costar). Twelve microliters per well of human HSL (15 ug/ml) was added and the reaction mixture was incubated at 37° C. for 20 minutes. Six microliters of 12 mM dithio-bis-(2-nitrobenzoic acid) (DTNB) in DMSO plus 1.2% SDS and 0.6% Triton X-100 were added and the mixture was incubated at room temperature for 15 minutes. Product production was monitored by reading absorbance at 405 nm on an Envision Reader (PerkinElmer Life and Analytical Sciences, Shelton, Conn.).
For orientation: IC50 means the concentration at which inhibition is half-maximal. As for `O=C(Nc1ccc(OC(F)(F)F)cc1)C1(O)CCN(S(=O)(=O)c2ccccc2F)CC1` [Example 61, 1-(2-Fluoro-benzenesulfonyl)-4-hydroxy-piperidine-4-carboxylic acid (4-trifluoromethoxy-phenyl)-amide], the IC50 is 100 nM.
For `O=C(Nc1ccc(OC(F)(F)F)cc1)C1(O)CCN(S(=O)(=O)CCC(F)(F)F)CC1` [Example 62, 4-Hydroxy-1-(3,3,3-trifluoro-propane-1-sulfonyl)-piperidine-4-carboxylic acid (4-trifluoromethoxy-phenyl)-amide] the value was 870 nM; for `O=C(Nc1ccc(OC(F)(F)F)cc1)C1(O)CCN(Cc2ccccc2Cl)CC1` [Example 63, 1-(2-Chloro-benzyl)-4-hydroxy-piperidine-4-carboxylic acid (4-trifluoromethoxy-phenyl)-amide], 180 nM; for `O=C(Nc1ccc(OC(F)(F)F)cc1)C1(O)CCN(S(=O)(=O)c2ccccc2C(F)(F)F)CC1` [Example 64, 4-Hydroxy-1-(2-trifluoromethyl-benzenesulfonyl)-piperidine-4-carboxylic acid (4-trifluoromethoxy-phenyl)-amide], 150 nM.
For `CN(C(=O)C1(O)CCN(S(=O)(=O)CC(C)(C)C)CC1)c1ccc(OC(F)(F)F)cc1` [Example 65, 1-(2,2-Dimethyl-propane-1-sulfonyl)-4-hydroxy-piperidine-4-carboxylic acid methyl-(4-trifluoromethoxy-phenyl)-amide] the value was 490 nM; for `CN(C(=O)C1(O)CCN(S(=O)(=O)c2cccs2)CC1)c1ccc(OC(F)(F)F)cc1` [Example 66, 4-Hydroxy-1-(thiophene-2-sulfonyl)-piperidine-4-carboxylic acid methyl-(4-trifluoromethoxy-phenyl)-amide], 200 nM; for `CN(C(=O)C1(O)CCN(Cc2ccccc2F)CC1)c1ccc(OC(F)(F)F)cc1` [Example 67, 1-(2-Fluoro-benzyl)-4-hydroxy-piperidine-4-carboxylic acid methyl-(4-trifluoromethoxy-phenyl)-amide], 190 nM.
Then `Cc1ccccc1S(=O)(=O)N1CCC(O)(C(=O)N(C)c2ccc(OC(F)(F)F)cc2)CC1` [Example 68, 4-Hydroxy-1-(toluene-2-sulfonyl)-piperidine-4-carboxylic acid methyl-(4-trifluoromethoxy-phenyl)-amide], with 100 nM.
In the case of `Cc1ccc(S(=O)(=O)N2CCC(O)(C(=O)N(C)c3ccc(OC(F)(F)F)cc3)CC2)cc1` [Example 69, 4-Hydroxy-1-(toluene-4-sulfonyl)-piperidine-4-carboxylic acid methyl-(4-trifluoromethoxy-phenyl)-amide], the IC50 worked out at 140 nM.
For `CN(C(=O)C1(O)CCN(S(=O)(=O)c2ccccc2F)CC1)c1ccc(OC(F)(F)F)cc1` [Example 70, 1-(2-Fluoro-benzenesulfonyl)-4-hydroxy-piperidine-4-carboxylic acid methyl-(4-trifluoromethoxy-phenyl)-amide], the IC50 came out at 90 nM.
For the compound `CN(C(=O)C1(O)CCN(Cc2ccccc2Cl)CC1)c1ccc(OC(F)(F)F)cc1` [Example 71, 1-(2-Chloro-benzyl)-4-hydroxy-piperidine-4-carboxylic acid methyl-(4-trifluoromethoxy-phenyl)-amide], the IC50 is 40 nM.
Take `CN(C(=O)C1(O)CCN(S(=O)(=O)c2ccccc2Cl)CC1)c1ccc(OC(F)(F)F)cc1` [Example 72, 1-(2-Chloro-benzenesulfonyl)-4-hydroxy-piperidine-4-carboxylic acid methyl-(4-trifluoromethoxy-phenyl)-amide]: the IC50 stood at 60 nM.
In the case of `CN(C(=O)C1(O)CCN(S(=O)(=O)c2ccccc2C(F)(F)F)CC1)c1ccc(OC(F)(F)F)cc1` [Example 73, 4-Hydroxy-1-(2-trifluoromethyl-benzenesulfonyl)-piperidine-4-carboxylic acid methyl-(4-trifluoromethoxy-phenyl)-amide], the IC50 amounted to 100 nM.
Then `CCN(C(=O)C1(O)CCN(S(=O)(=O)c2ccccc2C)CC1)c1ccc(OC(F)(F)F)cc1` [Example 74, 4-Hydroxy-1-(toluene-2-sulfonyl)-piperidine-4-carboxylic acid ethyl-(4-trifluoromethoxy-phenyl)-amide], with 880 nM; and `CCN(C(=O)C1(O)CCN(S(=O)(=O)c2ccccc2F)CC1)c1ccc(OC(F)(F)F)cc1` [Example 75, 1-(2-Fluoro-benzenesulfonyl)-4-hydroxy-piperidine-4-carboxylic acid ethyl-(4-trifluoromethoxy-phenyl)-amide], with 750 nM.
For `COC1(C(=O)Nc2ccc(C(C)(C)C)cc2)CCN(S(=O)(=O)c2ccccc2Cl)CC1` [Example 76, 1-(2-Chloro-benzenesulfonyl)-4-methoxy-piperidine-4-carboxylic acid (4-tert-butyl-phenyl)-amide], the IC50 came out at 530 nM.
As for `Cc1ccc(S(=O)(=O)N2CCC(N)(C(=O)Nc3ccc(C(C)(C)C)cc3)CC2)cc1` [Example 77, 4-Amino-1-(toluene-4-sulfonyl)-piperidine-4-carboxylic acid (4-tert-butyl-phenyl)-amide; hydrochloride], the IC50 was 50 nM.
With `Cc1ccc(S(=O)(=O)N2CCC(N)(C(=O)Nc3ccc(C(C)C)cc3)CC2)cc1` [Example 78, 4-Amino-1-(toluene-4-sulfonyl)-piperidine-4-carboxylic acid (4-isopropyl-phenyl)-amide; hydrochloride], the concentration for half-maximal inhibition (IC50) stood at 70 nM.
